Results from patent publication US7402587B2, “Crystalline forms of a pyridinyl-sulfonamide and their use as endothelin receptor antagonists” (Speedel Pharma AG, priority 2004, dated 2008).
One block for each molecule: values may come before it.

What was measured:
Type in all cases: physicochemical
[1] = Light sensitivity of solutions and suspensions; details: in particular above ambient temperature
[2] = Hygroscopicity: water adsorption when stored under humid conditions; details: hygroscopic, water released between 50° C. and 200° C. when heated at 10° C./minute
Procedure: Polymorph form A is a solid powder with a particle size in the range from 1 to 500 μm, preferably 5 to 300 μm, and more preferably 5 to 200 μm. The polymorph A is hygroscopic and adsorbs water to a content of about 5 percent by weight (when stored under humid conditions), which is continuously released between 50° C. and 200° C., when heated at a rate of 10° C./minute. The polymorph A is especially suitable as an intermediate and starting material to produce stable polymorph forms.

[3] = Thermodynamic stability of the crystalline forms (own investigations); details: compared with the other crystalline forms
Source text: Own investigations have shown that there exist two distinct crystalline forms, hereinafter referred to as form A and form B, as well as a number of further solvates, in particular the methanol, ethanol, isopropanol, dichloromethane, acetone, methyl ethyl ketone and tetrahydrofuran solvates.

sensitivity to light [1]: sensitive to light
SMILES: COc1ccccc1Oc1c(NS(=O)(=O)c2ccc(C)cn2)nc(-c2ccncc2)nc1OC [SPP301, 5-methyl-pyridine-2-sulfonic acid [6-methoxy-5-(2-methoxy-phenoxy)-2-pyridin-4-yl-pyrimidin-4-yl]-amide]

adsorbs water to a content of [2]: about 5 percent by weight
SMILES: COc1ccccc1Oc1c(NS(=O)(=O)c2ccc(C)cn2)nc(-c2ccncc2)nc1OC [form A, 5-methyl-pyridine-2-sulfonic acid [6-methoxy-5-(2-methoxy-phenoxy)-2-pyridin-4-yl-pyrimidin-4-yl]-amide]

thermodynamic stability of crystalline form [3]: thermodynamically stable
SMILES: COc1ccccc1Oc1c(NS(=O)(=O)c2ccc(C)cn2)nc(-c2ccncc2)nc1OC [form B, 5-methyl-pyridine-2-sulfonic acid [6-methoxy-5-(2-methoxy-phenoxy)-2-pyridin-4-yl-pyrimidin-4-yl]-amide]
